Data published in patent US20050026783A1, “Herbicide combinations comprising specific sulfonamides” (priority 2003, published 2005).
Like-named read-outs stand apart in the source and are kept apart here.

Key:
Triticum aestivum = assay type: in vivo; conditions: field trial, scored about 4 weeks after application, mean of 2-4 plots
Description: (§1) The seeds or rhizome pieces of the harmful plants and the useful plants were laid out or were present in the soil, and they were grown under natural outdoor conditions. Treatment with the active compounds or active compound combinations was carried out […] before and/or after the emergence of the plants, generally at the 2- to 4-leaf stage, in various dosages using a water application rate of 100 to 400 l/ha (converted).
(§2) After the application (about 4 weeks after the application), the effectiveness of the active compounds or active compound combinations was scored visually by comparing the treated plots to untreated control plots. During scoring, damage and development of all above-ground parts of plants was assessed. Scoring was carried out using a percentage scale (100% effect=all plants have died; 50% effect=50% of the plants and the green parts of the plants have died; 0% effect=no effect observed=like control plot). In each case, the mean score of 2-4 plots was calculated.
(§3) The results are shown in the table below; the effect of the individual application of active compounds (A+B) and C being stated in brackets.

Veronica hederifolia = assay type: in vivo; conditions: field trial, scored about 4 weeks after application, mean of 2-4 plots
Description: as §1, §2, §3

[1] = application rate 15 g of active substance/hectare
[2] = application rate 80 g of active substance/hectare
[3] = application rate 20 g of active substance/hectare

COc1cc(OC)nc(NC(=O)NS(=O)(=O)N(C)S(C)(=O)=O)n1 [amidosulfuron, 1-(4,6-dimethoxypyrimidin-2-yl)-3-mesyl-(methyl)sulfamoylurea]
Triticum aestivum % damage (Triticum aestivum; [1]): 0% | Veronica hederifolia % effect (Veronica hederifolia; [1]): 20%

CCCCCCCC(=O)Oc1c(I)cc(C#N)cc1I [ioxynil-octanoate]
Triticum aestivum % damage (Triticum aestivum; [2]): 0% | Veronica hederifolia % effect (Veronica hederifolia; [2]): 45%

CCCOc1nn(C(=O)[N-]S(=O)(=O)c2ccccc2C(=O)OC)c(=O)n1C.[Na+] [propoxycarbazone-sodium]
Triticum aestivum % damage (Triticum aestivum; [3]): 1% | Veronica hederifolia % effect (Veronica hederifolia; [3]): 25%
